Measurements as given in ChEMBL document CHEMBL1201862, “PubChem BioAssay data set” (2004).
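1) Cells in 96-well plates. 2) Compound, 48 h, 5 concentrations. 3) Linear interpolation between surrounding doses. 4) Unreached endpoint = highest concentration. GI50 is the concentration that inhibits growth by half.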 Calls of active or inactive are those of the source. Rule as the data show it: active = GI50 up to about 1.1 µM and inactive = higher.

Legend:
Assay in all cases: inhibition of tumour cell growth, NCI panel, 48 h
ACHN = system: ACHN
CCRF-CEM = system: CCRF-CEM
HOP-92 = system: HOP-92
K562 = system: K562
LXFL 529 = system: LXFL 529
M14 = system: M14
NCI-H23 = system: NCI-H23
NCI-H522 = system: NCI-H522
OVCAR-3 = system: OVCAR-3
SF-268 = system: SF-268
SK-MEL-2 = system: SK-MEL-2
SNB-78 = system: SNB-78
SW-620 = system: SW-620
UACC-62 = system: UACC-62

Measured: GI50

CN(C)P(=O)(/C(N)=N/Nc1ccc([N+](=O)[O-])cc1)N(C)C
inactive: ACHN > 100 µM | CCRF-CEM > 100 µM | HOP-92 41.4 µM | K562 > 100 µM | LXFL 529 > 100 µM | M14 > 100 µM | NCI-H23 62.4 µM | NCI-H522 48 µM | OVCAR-3 > 100 µM | SF-268 > 100 µM | SK-MEL-2 > 100 µM | SNB-78 > 100 µM | SW-620 > 100 µM | UACC-62 > 100 µM

CNC(SC)=C1C(=O)OC(C)(C)OC1=O
inactive: ACHN > 100 µM | CCRF-CEM > 100 µM | HOP-92 > 100 µM | K562 > 100 µM | LXFL 529 > 100 µM | M14 > 100 µM | NCI-H23 > 100 µM | NCI-H522 > 100 µM | OVCAR-3 > 100 µM | SF-268 > 100 µM | SK-MEL-2 37.1 µM | SNB-78 36.4 µM | SW-620 20 µM | UACC-62 > 100 µM
